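In this assay, cells in 96-well plates receive the compound at five concentrations for 48 hours. Endpoints are linearly interpolated between the surrounding concentrations. At the GI50, growth is halved.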 Calls of active or inactive are those of the source. Cut-off read from the data, not from the text of the source: active = GI50 up to about 1.1 µM and inactive = higher. Where a SMILES comes first, the peptide text is derived from it. Bridges are numbered along the chain shown (N, C = ends). [ ]: non-standard residue; d: D form. The star is where a group is joined. ξ: configuration not given here. PhAc = O=C(Cc1ccccc1)*; ξP = O=C(O)C1CCCN1
What was measured:
Experiment in all cases: inhibition of tumour cell growth, NCI panel, 48 h
ACHN = test system: ACHN
HCC 2998 = test system: HCC 2998
HCT-116 = test system: HCT-116
HCT-15 = test system: HCT-15
MDA-N = test system: MDA-N
Malme-3M = test system: Malme-3M
NCI-H522 = test system: NCI-H522
NCI/ADR-RES = test system: NCI/ADR-RES
RPMI-8226 = test system: RPMI-8226
SF-268 = test system: SF-268
SK-MEL-2 = test system: SK-MEL-2
SK-OV-3 = test system: SK-OV-3
SNB-19 = test system: SNB-19
SR = test system: SR
SW-620 = test system: SW-620
T47D = test system: T47D
TK-10 = test system: TK-10
UACC-62 = test system: UACC-62
UO-31 = test system: UO-31
BT-549 = test system: BT-549

Structure (SMILES) | GI50 (ACHN) | GI50 (HCC 2998) | GI50 (HCT-116) | GI50 (HCT-15) | GI50 (MDA-N) | GI50 (Malme-3M) | GI50 (NCI-H522) | GI50 (NCI/ADR-RES) | GI50 (RPMI-8226) | GI50 (SF-268) | GI50 (SK-MEL-2) | GI50 (SK-OV-3) | GI50 (SNB-19) | GI50 (SR) | GI50 (SW-620) | GI50 (T47D) | GI50 (TK-10) | GI50 (UACC-62) | GI50 (UO-31) | GI50 (BT-549)
O=Cc1c2c(cc3c1CC1(C3)Cc3cc4c(c(C=O)c3C1)CCCC4)CCCC2 | 22.9 µM (inactive) | 29.4 µM (inactive) | 20.4 µM (inactive) | 19.2 µM | > 31.6 µM (inactive) | > 31.6 µM (inactive) | 14.3 µM (inactive) | > 31.6 µM (inactive) | 16.8 µM (inactive) | > 100 µM (inactive) | > 10 µM (inactive) | > 31.6 µM (inactive) | 98.9 µM (inactive) | 10.1 µM (inactive) | 89.3 µM (inactive) | > 31.6 µM (inactive) | > 31.6 µM (inactive) | > 31.6 µM (inactive) | – | –
COc1ccc(N2C(=O)C3c4[nH]c5ccccc5c4C4CCCCCCCCCC4C3C2=O)cc1 (stereo unspecified) | > 10 µM (inactive) | > 10 µM (inactive) | > 10 µM (inactive) | > 10 µM | > 10 µM (inactive) | > 10 µM (inactive) | > 10 µM (inactive) | > 10 µM (inactive) | > 10 µM (inactive) | > 10 µM (inactive) | > 10 µM (inactive) | > 10 µM (inactive) | > 10 µM (inactive) | > 10 µM (inactive) | > 10 µM (inactive) | > 10 µM (inactive) | > 10 µM (inactive) | > 10 µM (inactive) | > 10 µM (inactive) | –
CC(C)(C)OC(=O)C1/C(=C/CO)CN1C(=O)OC(C)(C)C (stereo unspecified) | > 100 µM (inactive) | > 100 µM (inactive) | > 100 µM (inactive) | > 100 µM | > 100 µM (inactive) | > 100 µM (inactive) | – | > 100 µM (inactive) | > 100 µM (inactive) | > 100 µM (inactive) | > 100 µM (inactive) | > 100 µM (inactive) | > 100 µM (inactive) | 90.8 µM (inactive) | > 100 µM (inactive) | – | > 100 µM (inactive) | > 100 µM (inactive) | > 100 µM (inactive) | > 100 µM (inactive)
O=C1C(Cl)=C(Cl)C(=O)C(CCNc2nccs2)=C1Cl | 27.4 µM (inactive) | > 100 µM (inactive) | 28.2 µM (inactive) | 20.4 µM | – | 20.4 µM (inactive) | 13.1 µM (inactive) | 25.5 µM (inactive) | – | 38.6 µM (inactive) | 27.6 µM (inactive) | > 100 µM (inactive) | > 100 µM (inactive) | 47.2 µM (inactive) | 29.4 µM (inactive) | 43.5 µM (inactive) | 29.2 µM (inactive) | 20.7 µM (inactive) | 21.2 µM (inactive) | –
N#Cc1c(-c2ccc(Cl)cc2)cc(-c2ccc(Nc3ccnc4cc(Cl)ccc34)cc2)nc1N | > 100 µM (inactive) | > 100 µM (inactive) | > 100 µM (inactive) | > 100 µM | – | > 100 µM (inactive) | 41.7 µM (inactive) | > 100 µM (inactive) | > 100 µM (inactive) | > 100 µM (inactive) | > 100 µM (inactive) | > 100 µM (inactive) | 28.8 µM (inactive) | 5.45 µM (inactive) | > 100 µM (inactive) | > 100 µM (inactive) | > 100 µM (inactive) | > 100 µM (inactive) | > 100 µM (inactive) | > 100 µM (inactive)
CSc1nc2c3ccccc3ccn2c1C(=O)N/N=C/c1ccccc1 | 9.06 µM (inactive) | > 100 µM (inactive) | 15.5 µM (inactive) | > 100 µM | 97.3 µM (inactive) | 47.6 µM (inactive) | > 94.4 µM (inactive) | 28.9 µM (inactive) | > 100 µM (inactive) | 19.7 µM (inactive) | > 95.7 µM (inactive) | 19.6 µM (inactive) | – | 41.9 µM (inactive) | 97.9 µM (inactive) | 27.9 µM (inactive) | – | > 100 µM (inactive) | 21.8 µM (inactive) | –
O=C(Cc1ccccc1)N[C@@H]1COC(=O)C2CCCN2C(=O)[C@@H]2CCCN2C1=O (stereo partly specified) (PhAc-[dS]-Pro-[ξP]; ester 1-C) | > 100 µM (inactive) | > 100 µM (inactive) | > 100 µM (inactive) | > 100 µM | > 100 µM (inactive) | > 100 µM (inactive) | – | > 100 µM (inactive) | – | > 100 µM (inactive) | > 100 µM (inactive) | > 100 µM (inactive) | > 100 µM (inactive) | > 100 µM (inactive) | > 100 µM (inactive) | > 100 µM (inactive) | > 100 µM (inactive) | > 100 µM (inactive) | – | –
O=C(NC1CCC(=O)N1C(=O)OCc1ccccc1)OCc1ccccc1 (stereo unspecified) | > 100 µM (inactive) | > 100 µM (inactive) | – | > 100 µM | > 100 µM (inactive) | > 100 µM (inactive) | > 100 µM (inactive) | > 100 µM (inactive) | > 100 µM (inactive) | > 100 µM (inactive) | > 100 µM (inactive) | > 100 µM (inactive) | > 100 µM (inactive) | > 100 µM (inactive) | > 100 µM (inactive) | – | > 100 µM (inactive) | > 100 µM (inactive) | > 100 µM (inactive) | > 100 µM (inactive)
C=[N+](CNC(=O)CNC(=O)C(Cc1ccccc1)NC(=O)OC(C)(C)C)C(=O)CNC(=O)C(Cc1ccccc1)NC(=O)OC(C)(C)C (stereo unspecified) | > 100 µM (inactive) | > 100 µM (inactive) | > 100 µM (inactive) | > 100 µM | > 100 µM (inactive) | > 100 µM (inactive) | > 100 µM (inactive) | > 100 µM (inactive) | > 100 µM (inactive) | > 100 µM (inactive) | > 100 µM (inactive) | > 100 µM (inactive) | > 100 µM (inactive) | > 100 µM (inactive) | > 100 µM (inactive) | > 100 µM (inactive) | – | > 100 µM (inactive) | > 100 µM (inactive) | –
CC(C)OP(=O)(OC(C)C)c1c(N)n[nH]c1Nc1ccccc1 | > 100 µM (inactive) | > 100 µM (inactive) | – | > 100 µM | > 100 µM (inactive) | > 100 µM (inactive) | > 100 µM (inactive) | > 100 µM (inactive) | > 100 µM (inactive) | > 100 µM (inactive) | > 100 µM (inactive) | > 100 µM (inactive) | > 100 µM (inactive) | > 100 µM (inactive) | > 100 µM (inactive) | > 100 µM (inactive) | > 100 µM (inactive) | > 100 µM (inactive) | > 100 µM (inactive) | –
CC(NC(=O)OC(C)(C)C)C(=O)C(N)=O (stereo unspecified) | > 100 µM (inactive) | > 100 µM (inactive) | > 100 µM (inactive) | > 100 µM | > 100 µM (inactive) | – | – | > 100 µM (inactive) | > 100 µM (inactive) | > 100 µM (inactive) | > 100 µM (inactive) | > 100 µM (inactive) | > 100 µM (inactive) | 38.6 µM (inactive) | > 100 µM (inactive) | > 100 µM (inactive) | > 100 µM (inactive) | – | > 100 µM (inactive) | –
COc1ccc(/C=C/C(=O)c2ccc(Br)cc2)cc1 | > 100 µM (inactive) | > 100 µM (inactive) | 80.4 µM (inactive) | > 100 µM | > 100 µM (inactive) | > 100 µM (inactive) | – | 52 µM (inactive) | 57 µM (inactive) | > 100 µM (inactive) | > 100 µM (inactive) | > 100 µM (inactive) | > 100 µM (inactive) | 84.1 µM (inactive) | > 100 µM (inactive) | 42.4 µM (inactive) | > 100 µM (inactive) | > 100 µM (inactive) | 78.7 µM (inactive) | –
C[C@]12CCC(O)CC1=CC[C@@H]1[C@@H]2CC[C@]2(C)C(O)[C@H](n3ccnc3)C[C@@H]12 (stereo partly specified) | 62.2 µM (inactive) | – | 59.4 µM (inactive) | 69.2 µM | 79.3 µM (inactive) | > 100 µM (inactive) | 58.6 µM (inactive) | > 100 µM (inactive) | 22.4 µM (inactive) | > 100 µM (inactive) | 52.1 µM (inactive) | – | 90.4 µM (inactive) | 13.1 µM (inactive) | > 100 µM (inactive) | – | > 100 µM (inactive) | 77.1 µM (inactive) | > 100 µM (inactive) | –
C=CCN(C(=O)CNC(=O)C(F)(F)F)c1cc(OCc2ccccc2)c2c(c1)c(C)cn2S(=O)(=O)c1ccccc1 | > 26 µM (inactive) | > 100 µM (inactive) | 7.66 µM (inactive) | > 100 µM | – | > 100 µM (inactive) | 6.19 µM (inactive) | > 100 µM (inactive) | 4.73 µM (inactive) | 6.59 µM (inactive) | > 28.5 µM (inactive) | > 100 µM (inactive) | > 100 µM (inactive) | – | – | 5.93 µM (inactive) | > 100 µM (inactive) | 6.76 µM (inactive) | 2.9 µM (inactive) | > 100 µM (inactive)
CC(O)=C1C(=O)CCC1=O | > 100 µM (inactive) | > 100 µM (inactive) | > 100 µM (inactive) | – | – | > 100 µM (inactive) | > 100 µM (inactive) | > 100 µM (inactive) | > 100 µM (inactive) | > 100 µM (inactive) | > 100 µM (inactive) | > 100 µM (inactive) | > 100 µM (inactive) | > 100 µM (inactive) | > 100 µM (inactive) | > 100 µM (inactive) | > 100 µM (inactive) | > 100 µM (inactive) | > 100 µM (inactive) | > 100 µM (inactive)
CC1(O)CC23CC(O)C4(O)C(CC(O)C4(C)C)C(C)(O)C2CCC1C3O (stereo unspecified) | > 100 µM (inactive) | > 100 µM (inactive) | > 100 µM (inactive) | > 100 µM | – | > 100 µM (inactive) | > 100 µM (inactive) | > 100 µM (inactive) | – | > 100 µM (inactive) | > 100 µM (inactive) | > 100 µM (inactive) | > 100 µM (inactive) | > 100 µM (inactive) | > 100 µM (inactive) | > 100 µM (inactive) | > 100 µM (inactive) | > 100 µM (inactive) | > 100 µM (inactive) | > 100 µM (inactive)

— ChEMBL document CHEMBL1201862, “PubChem BioAssay data set” (2004)
